# US20020137929A1, “1 - (3-heterocyclylphenyl) isothiourea, -isourea, -guanidine and -amidine herbicidal agents” (Intellectual Property Department, BASF Aktiengesellschaft, priority 1998, published 2002)
# How the values were obtained:
# ABUTH (Velvetleaf) = assay: Postemergence herbicidal evaluation; assay type: in vivo, Abutilon theophrasti; settings: postemergence
# Method in brief: (§1)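 Each compound, dispersed in an acetone/water mix (50/50) carrying 0.5% TWEEN 20, is nozzle-sprayed at 40 psi on approximately two-week-old seedlings at about 0.0156–0.500 kg/ha. Plants are assessed 4–5 weeks afterward on a 0–9 scale relative to control; duplicate tests are averaged.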
# AMBEL (Ragweed, Common) = assay: Postemergence herbicidal evaluation; assay type: in vivo, Ambrosia artemisifolia; settings: postemergence
# Method in brief: as §1
# [1] = test system: IPOHE (Morningglory, Ivyleaf); assay: Postemergence herbicidal evaluation; assay type: in vivo, Ipomoea hederacea; settings: postemergence
# Method in brief: as §1
# ECHCG (Barnyardgrass) [2] = assay: Postemergence herbicidal evaluation; assay type: in vivo, Echinochloa crus-galli; settings: postemergence
# Method in brief: as §1
# SETVI (Foxtail, Green) = assay: Postemergence herbicidal evaluation; assay type: in vivo, Setaria viridis; settings: postemergence
# Method in brief: as §1
# [3] = test system: GLXMAW (Soybean, Williams); assay: Postemergence herbicidal evaluation; assay type: in vivo, Glycine max, (L.) Merr. cv Williams; settings: postemergence
# Method in brief: as §1
# [4] = test system: TRZAWR (Wheat, Winter, cv Riband); assay: Postemergence herbicidal evaluation; assay type: in vivo, Triticum aestivum; settings: postemergence
# Method in brief: as §1
# CASOB (Sicklepod) = assay: Preemergence herbicidal evaluation; assay type: in vivo, Cassia obtusifolia; settings: rated 4-5 weeks after treatment
# From the text: (§2) Results of herbicide evaluation are expressed on a rating scale (0-9). The scale is based upon a visual observation of plant stand, vigor, malformation, size, chlorosis and overall plant appearance as compared with a control.
# (§3) The preemergence herbicidal activity of the test compounds of the present invention is exemplified by the following tests in which the seeds of a variety of monocotyledonous and dicotyledonous plants are separately mixed with potting soil and planted on top of approximately one inch of soil in separate pint cups. After planting, the cups are sprayed with the selected aqueous acetone solution containing test compound in sufficient quantity to provide the equivalent of about 0.0156 to 0.500 kg per hectare of test compound per cup. The treated cups are then placed on greenhouse benches, watered and cared for in accordance with conventional greenhouse procedures. From four to five weeks after treatment, the tests are terminated and each cup is examined and rated according to the rating system provided in Example 37.
# (§4) The compounds evaluated are reported by compound number given in Example 37.
# [5] = test system: CHEAL (Lambsquarters, Common); assay: Preemergence herbicidal evaluation; assay type: in vivo, Chenopodium album; settings: rated 4-5 weeks after treatment
# From the text: as §2, §3, §4
# GALAP (Galium) = assay: Preemergence herbicidal evaluation; assay type: in vivo, Galium aparine; settings: rated 4-5 weeks after treatment
# Method in brief: (§5)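 Seeds were mixed with potting soil and planted on about one inch of soil, then sprayed with test compound in aqueous acetone at about 0.0156 to 0.500 kg per hectare. Plants grew under standard greenhouse care and were visually rated 0-9 against untreated controls 4-5 weeks post-treatment.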
# [6] = test system: IPOHE (Morningglory, Ivyleaf); assay: Preemergence herbicidal evaluation; assay type: in vivo, Ipomoea hederacea; settings: rated 4-5 weeks after treatment
# Method in brief: as §5
# ECHCG (Barnyardgrass) [7] = assay: Preemergence herbicidal evaluation; assay type: in vivo, Echinochloa crus-galli; settings: rated 4-5 weeks after treatment
# From the text: as §2, §3, §4
# ZEAMX (Corn, Field) = assay: Preemergence herbicidal evaluation; assay type: in vivo, Zea mays; settings: rated 4-5 weeks after treatment
# From the text: as §2, §3, §4
smiles,measurement,setting,value
"CC(C)COC(=O)CN1C(=O)CSC1=Nc1cc(-n2c(=O)cc(C(F)(F)F)n(C)c2=O)c(F)cc1Cl [Compound 121, Isobutyl 2-{{2-chloro-5-[3,6-dihydro-3-methyl-2,6-dioxo-4-(trifluoromethyl)-1(2H)-pyrimidinyl]-4-fluorophenyl}imino}-4-oxo-3-thiazolidineacetate]",Herbicidal rating ABUTH,ABUTH (Velvetleaf); rate 0.0156 kg/ha,9.0
same,Herbicidal rating ABUTH,ABUTH (Velvetleaf); rate 0.0313 kg/ha,9.0
same,Herbicidal rating ABUTH,ABUTH (Velvetleaf); rate 0.0625 kg/ha,9.0
same,Herbicidal rating AMBEL,"AMBEL (Ragweed, Common); rate 0.0156 kg/ha",9.0
same,Herbicidal rating AMBEL,"AMBEL (Ragweed, Common); rate 0.0313 kg/ha",9.0
same,Herbicidal rating AMBEL,"AMBEL (Ragweed, Common); rate 0.0625 kg/ha",9.0
same,Herbicidal rating IPOHE,[1]; rate 0.0156 kg/ha,9.0
same,Herbicidal rating IPOHE,[1]; rate 0.0313 kg/ha,9.0
same,Herbicidal rating IPOHE,[1]; rate 0.0625 kg/ha,9.0
same,Herbicidal rating ECHCG,ECHCG (Barnyardgrass) [2]; rate 0.0156 kg/ha,0.0
same,Herbicidal rating ECHCG,ECHCG (Barnyardgrass) [2]; rate 0.0313 kg/ha,0.0
same,Herbicidal rating ECHCG,ECHCG (Barnyardgrass) [2]; rate 0.0625 kg/ha,0.0
same,Herbicidal rating SETVI,"SETVI (Foxtail, Green); rate 0.0156 kg/ha",8.0
same,Herbicidal rating SETVI,"SETVI (Foxtail, Green); rate 0.0313 kg/ha",8.0
same,Herbicidal rating SETVI,"SETVI (Foxtail, Green); rate 0.0625 kg/ha",9.0
same,Herbicidal rating GLXMAW,[3]; rate 0.0156 kg/ha,6.0
same,Herbicidal rating GLXMAW,[3]; rate 0.0313 kg/ha,8.0
same,Herbicidal rating GLXMAW,[3]; rate 0.0625 kg/ha,8.0
same,Herbicidal rating TRZAWR,[4]; rate 0.0156 kg/ha,3.0
same,Herbicidal rating TRZAWR,[4]; rate 0.0313 kg/ha,4.0
same,Herbicidal rating TRZAWR,[4]; rate 0.0625 kg/ha,5.0
same,Preemergence herbicidal rating CASOB,CASOB (Sicklepod); rate 0.0156 kg/ha,0.0
same,Preemergence herbicidal rating CASOB,CASOB (Sicklepod); rate 0.0313 kg/ha,0.0
same,Preemergence herbicidal rating CASOB,CASOB (Sicklepod); rate 0.0625 kg/ha,0.0
same,Preemergence herbicidal rating CASOB,CASOB (Sicklepod); rate 0.1250 kg/ha,9.0
same,Preemergence herbicidal rating CASOB,CASOB (Sicklepod); rate 0.2500 kg/ha,9.0
same,Preemergence herbicidal rating CHEAL,[5]; rate 0.0156 kg/ha,9.0
same,Preemergence herbicidal rating CHEAL,[5]; rate 0.0313 kg/ha,9.0
same,Preemergence herbicidal rating CHEAL,[5]; rate 0.0625 kg/ha,9.0
same,Preemergence herbicidal rating CHEAL,[5]; rate 0.1250 kg/ha,9.0
same,Preemergence herbicidal rating CHEAL,[5]; rate 0.2500 kg/ha,9.0
same,Preemergence herbicidal rating GALAP,GALAP (Galium); rate 0.0156 kg/ha,0.0
same,Preemergence herbicidal rating GALAP,GALAP (Galium); rate 0.0313 kg/ha,0.0
same,Preemergence herbicidal rating GALAP,GALAP (Galium); rate 0.0625 kg/ha,0.0
same,Preemergence herbicidal rating GALAP,GALAP (Galium); rate 0.1250 kg/ha,5.0
same,Preemergence herbicidal rating GALAP,GALAP (Galium); rate 0.2500 kg/ha,9.0
same,Preemergence herbicidal rating IPOHE,[6]; rate 0.0156 kg/ha,0.0
same,Preemergence herbicidal rating IPOHE,[6]; rate 0.0313 kg/ha,0.0
same,Preemergence herbicidal rating IPOHE,[6]; rate 0.0625 kg/ha,3.0
same,Preemergence herbicidal rating IPOHE,[6]; rate 0.1250 kg/ha,4.0
same,Preemergence herbicidal rating IPOHE,[6]; rate 0.2500 kg/ha,9.0
same,Preemergence herbicidal rating ECHCG,ECHCG (Barnyardgrass) [7]; rate 0.0156 kg/ha,0.0
same,Preemergence herbicidal rating ECHCG,ECHCG (Barnyardgrass) [7]; rate 0.0313 kg/ha,0.0
same,Preemergence herbicidal rating ECHCG,ECHCG (Barnyardgrass) [7]; rate 0.0625 kg/ha,4.0
same,Preemergence herbicidal rating ECHCG,ECHCG (Barnyardgrass) [7]; rate 0.1250 kg/ha,7.0
same,Preemergence herbicidal rating ECHCG,ECHCG (Barnyardgrass) [7]; rate 0.2500 kg/ha,9.0
same,Preemergence herbicidal rating ZEAMX,"ZEAMX (Corn, Field); rate 0.0156 kg/ha",0.0
same,Preemergence herbicidal rating ZEAMX,"ZEAMX (Corn, Field); rate 0.0313 kg/ha",4.0
same,Preemergence herbicidal rating ZEAMX,"ZEAMX (Corn, Field); rate 0.0625 kg/ha",6.0
same,Preemergence herbicidal rating ZEAMX,"ZEAMX (Corn, Field); rate 0.1250 kg/ha",7.0
same,Preemergence herbicidal rating ZEAMX,"ZEAMX (Corn, Field); rate 0.2500 kg/ha",8.0
